Test results published in US20250002489A1, “BIFUNCTIONAL COMPOUNDS FOR DEGRADING ITK VIA UBIQUITIN PROTEOSOME PATHWAY” (NURIX THERAPEUTICS, INC., priority 2021, published 2025).

Biological target: T1, ITK (C-terminal HiBiT-tagged Molt4 cells) (Homo sapiens, UniProt Q08881)
T1 construct: expressed in transfected cells; host or cells: Molt4 (ATCC CRL-1552), monoclonal clone 1C10, engineered to express HiBiT-tagged ITK
T1 sequence (Q08881 1-620): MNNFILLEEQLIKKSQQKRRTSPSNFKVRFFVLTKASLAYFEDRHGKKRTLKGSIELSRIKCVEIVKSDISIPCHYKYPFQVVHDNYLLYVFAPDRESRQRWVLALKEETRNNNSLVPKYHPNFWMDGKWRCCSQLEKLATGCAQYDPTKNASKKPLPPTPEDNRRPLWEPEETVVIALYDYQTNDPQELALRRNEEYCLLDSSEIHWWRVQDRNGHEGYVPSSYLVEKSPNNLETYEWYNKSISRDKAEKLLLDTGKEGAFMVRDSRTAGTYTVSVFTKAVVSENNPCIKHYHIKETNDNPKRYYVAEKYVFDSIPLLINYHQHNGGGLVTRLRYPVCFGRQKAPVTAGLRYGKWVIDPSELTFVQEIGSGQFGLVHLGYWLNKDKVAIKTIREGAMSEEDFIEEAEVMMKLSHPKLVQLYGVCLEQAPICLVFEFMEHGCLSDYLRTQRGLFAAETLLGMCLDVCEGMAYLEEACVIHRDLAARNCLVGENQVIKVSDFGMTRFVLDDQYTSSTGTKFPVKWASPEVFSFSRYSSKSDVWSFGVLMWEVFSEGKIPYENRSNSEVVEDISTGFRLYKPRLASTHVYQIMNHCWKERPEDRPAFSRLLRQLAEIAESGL
Test: ITK Degradation HiBiT Assay
Type: cell-based
Conditions: for DC50: 4 hrs incubation, best fit IC50 used as DC50; for Dmax: MOLT-4, 4 hrs incubation
Method: Compounds provided herein were assayed in vitro with ITK HiBit cell lines. Compound dilution series (11-point, 5-fold dilutions in DMSO, columns 2-12 with replicate in rows A/B, C/D, E/F, G, and H at 2000× the final required concentrations were prepared in 96-well plate (Falcon, cat. no. 353077). Column 1, rows A-H were control DMSO. The 2000× solutions ranged from 2 mM to 1.024 nM (final assay concentration range 1 μM to 0.512 pM). The 2000×solutions were added to cells in 10 μL volume, for a final DMSO concentration of 0.5% and final assay compound concentration of 1×. For the cells, C-terminal HiBiT-tagged Molt4 cells (ATCC CRL-1552, monoclonal cell line clone 1C10) were plated at 1×10^6 cells/mL, 100 μL/well ([…]) in complete RPMI (10% FBS, 1% L-glutamine). The cells were incubated with compounds 1-25, 31, and 31 for 4 hrs at 32° C./6% CO2.
Following incubation, 100 μL of complete Nano-Glo HiBiT Lytic Detection Reagent (Nano-Glo HiBiT Lytic Buffer with 1:50 Nano-Glo HiBiT Lytic Substrate and 1:100 LgBiT Protein; Promega cat. no. N3O40) was added. Cells were further incubated for 10 min at room temperature. Luminescence units (LU) were read on an EnVision plate reader (Perkin Elmer, 0.1 sec per well). Percent ITK remaining per sample was calculated as follows: […]
Using Graphpad Prism, % ITK remaining values were plotted as a function of compound concentration. To determine DC50 and Dmax values, resulting curves were fit to the Prism curve-fitting equation “log(inhibitor) vs response−Variable slope (four parameters)” (reported best fit value IC50 used as DC50). ITK was measured with antibody-based MSD (Meso-Scale Discovery) assays shown below.

Row | DC50 [nM] | Dmax [%] | SMILES
1 | 6.61 | – | Cc1ncsc1-c1ccc([C@H](C)NC(=O)[C@@H]2C[C@@H](O)CN2C(=O)[C@@H](NC(=O)CCN2CCC(CCC(=O)N3CC([C@@H](c4ccccc4)n4cc(NC(=O)c5n[nH]c6c5C[C@@H]5C(F)(F)[C@]5(C)C6)cn4)C3)CC2)C(C)(C)C)cc1 [Compound 26, (4aS,5aR)-5,5-difluoro-N-(1-((S)-(1-(3-(1-(3-(((S)-1-((2S,4R)-4-hydroxy-2-(((S)-1-(4-(4-methylthiazol-5-yl)phenyl)ethyl)carbamoyl)pyrrolidin-1-yl)-3,3-dimethyl-1-oxobutan-2-yl)amino)-3-oxopropyl)piperidin-4-yl)propanoyl)azetidin-3-yl)(phenyl)methyl)-1H-pyrazol-4-yl)-5a-methyl-1,4,4a,5,5a,6-hexahydrocyclopropa[f]indazole-3-carboxamide]
2 | – | 35 | Cc1ncsc1-c1ccc([C@H](C)NC(=O)[C@@H]2C[C@@H](O)CN2C(=O)[C@@H](NC(=O)CCCCCCCCCC(=O)N2CC([C@@H](c3ccccc3)n3cc(NC(=O)c4n[nH]c5c4C[C@@H]4C(F)(F)[C@]4(C)C5)cn3)C2)C(C)(C)C)cc1 [Compound 27, (4aS,5aR)-5,5-difluoro-N-(1-((S)-(1-(11-(((S)-1-((2S,4R)-4-hydroxy-2-(((S)-1-(4-(4-methylthiazol-5-yl)phenyl)ethyl)carbamoyl)pyrrolidin-1-yl)-3,3-dimethyl-1-oxobutan-2-yl)amino)-11-oxoundecanoyl)azetidin-3-yl)(phenyl)methyl)-1H-pyrazol-4-yl)-5a-methyl-1,4,4a,5,5a,6-hexahydrocyclopropa[f]indazole-3-carboxamide]
3 | 1.41 | 91 | Cc1ncsc1-c1ccc([C@H](C)NC(=O)[C@@H]2C[C@@H](O)CN2C(=O)[C@@H](NC(=O)CCCCCCCC(=O)N2CC([C@@H](c3ccccc3)n3cc(NC(=O)c4n[nH]c5c4C[C@@H]4C(F)(F)[C@]4(C)C5)cn3)C2)C(C)(C)C)cc1 [Compound 28, (4aS,5aR)-5,5-difluoro-N-(1-((S)-(1-(9-(((S)-1-((2S,4R)-4-hydroxy-2-(((S)-1-(4-(4-methylthiazol-5-yl)phenyl)ethyl)carbamoyl)pyrrolidin-1-yl)-3,3-dimethyl-1-oxobutan-2-yl)amino)-9-oxononanoyl)azetidin-3-yl)(phenyl)methyl)-1H-pyrazol-4-yl)-5a-methyl-1,4,4a,5,5a,6-hexahydrocyclopropa[f]indazole-3-carboxamide]
4 | 19.7 | 84 | Cc1ncsc1-c1ccc([C@H](C)NC(=O)[C@@H]2C[C@@H](O)CN2C(=O)[C@@H](NC(=O)CCCCCC(=O)N2CC([C@@H](c3ccccc3)n3cc(NC(=O)c4n[nH]c5c4C[C@@H]4C(F)(F)[C@]4(C)C5)cn3)C2)C(C)(C)C)cc1 [Compound 29, (4aS,5aR)-5,5-difluoro-N-(1-((S)-(1-(7-(((S)-1-((2S,4R)-4-hydroxy-2-(((S)-1-(4-(4-methylthiazol-5-yl)phenyl)ethyl)carbamoyl)pyrrolidin-1-yl)-3,3-dimethyl-1-oxobutan-2-yl)amino)-7-oxoheptanoyl)azetidin-3-yl)(phenyl)methyl)-1H-pyrazol-4-yl)-5a-methyl-1,4,4a,5,5a,6-hexahydrocyclopropa[f]indazole-3-carboxamide]
5 | – | 35 | Cc1ncsc1-c1ccc(CNC(=O)[C@@H]2C[C@@H](O)CN2C(=O)[C@@H](NC(=O)C2(F)CC2)C(C)(C)C)c(OC2CN(c3ccnc(N4CC([C@@H](c5ccccc5)n5cc(NC(=O)c6n[nH]c7c6C[C@@H]6C(F)(F)[C@]6(C)C7)cn5)C4)c3)C2)c1 [Compound 35, (4aS,5aR)-5,5-difluoro-N-(1-((S)-(1-(4-(3-(2-(((2S,4R)-1-((S)-2-(1-fluorocyclopropane-1-carboxamido)-3,3-dimethylbutanoyl)-4-hydroxypyrrolidine-2-carboxamido)methyl)-5-(4-methylthiazol-5-yl)phenoxy)azetidin-1-yl)pyridin-2-yl)azetidin-3-yl)(phenyl)methyl)-1H-pyrazol-4-yl)-5a-methyl-1,4,4a,5,5a,6-hexahydrocyclopropa[f]indazole-3-carboxamide]
